{"source": "paper PMC11272598", "about": "“RG7774 (Vicasinabin), an orally bioavailable cannabinoid receptor 2 (CB2R) agonist, decreases retinal vascular permeability, leukocyte adhesion, and ocular inflammation in animal models” (Frontiers in Pharmacology, 2024)", "key": {"Human 12-LOX": {"target": "T1, Human 12-LOX (Homo sapiens, UniProt P18054)", "T1 construct": "human platelet-derived 12-LOX; from tissue; host or cells: human platelets", "T1 sequence (P18054 whole entry)": "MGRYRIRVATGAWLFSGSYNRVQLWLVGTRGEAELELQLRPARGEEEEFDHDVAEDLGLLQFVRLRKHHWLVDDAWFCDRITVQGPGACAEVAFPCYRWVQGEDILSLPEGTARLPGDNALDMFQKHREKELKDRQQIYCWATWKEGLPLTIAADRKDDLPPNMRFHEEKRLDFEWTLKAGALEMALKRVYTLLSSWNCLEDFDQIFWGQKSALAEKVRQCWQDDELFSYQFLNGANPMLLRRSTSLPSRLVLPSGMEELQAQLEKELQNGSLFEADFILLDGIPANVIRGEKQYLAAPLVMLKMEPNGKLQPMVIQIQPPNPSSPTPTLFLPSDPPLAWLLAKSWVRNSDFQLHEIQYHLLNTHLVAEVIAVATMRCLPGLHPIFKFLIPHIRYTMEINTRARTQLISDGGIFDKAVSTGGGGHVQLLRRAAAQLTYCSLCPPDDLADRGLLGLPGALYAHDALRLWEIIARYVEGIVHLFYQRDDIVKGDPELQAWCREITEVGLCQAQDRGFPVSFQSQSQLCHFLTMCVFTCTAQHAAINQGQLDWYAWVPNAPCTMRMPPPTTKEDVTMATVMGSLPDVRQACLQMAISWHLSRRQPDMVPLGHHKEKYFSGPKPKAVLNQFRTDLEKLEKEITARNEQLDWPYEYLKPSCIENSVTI", "test": "Human 12-LOX assay", "assay_type": "biochemical", "details": "positive control 100 µM", "method": "(§1) The inhibitory effects of different concentrations of RG7774 (0.1-500 µM) on the activities of human recombinant 5-LOX (Cayman Chemical Company #60402), 15-LOX (Cayman Chemical Company #10011263), and human platelet-derived 12-LOX were determined using the Biovision Lipoxygenase Activity Assay Kit (#BVN-K978-100). This kit converts the LOX substrate to an intermediate that reacted with the probe, generating a fluorescent product. The effect of RG7774 (preincubated for 15 min) at 10 µM on LOXs (5-LOX: 0.5 or 1.2 µg; 12-LOX: 20 µg; 15-LOX: 0.23 or 0.3 µg) was ascertained by adding the compounds directly to the incubation medium and the fluorescent signal, recorded at excitation/emission 500/536 nm at 30 sec intervals for 30-40 min, was directly proportional to LOX activity. […] The percentage of human 5-, 12-, and 15-LOX activity (control) was estimated from the amount of oxidized probe in the reaction using a standard curve."}, "Human 5-LOX": {"target": "T2, Human 5-LOX (Homo sapiens, UniProt P09917)", "T2 construct": "purchased Cayman Chemical Company #60402", "T2 sequence (P09917 whole entry)": "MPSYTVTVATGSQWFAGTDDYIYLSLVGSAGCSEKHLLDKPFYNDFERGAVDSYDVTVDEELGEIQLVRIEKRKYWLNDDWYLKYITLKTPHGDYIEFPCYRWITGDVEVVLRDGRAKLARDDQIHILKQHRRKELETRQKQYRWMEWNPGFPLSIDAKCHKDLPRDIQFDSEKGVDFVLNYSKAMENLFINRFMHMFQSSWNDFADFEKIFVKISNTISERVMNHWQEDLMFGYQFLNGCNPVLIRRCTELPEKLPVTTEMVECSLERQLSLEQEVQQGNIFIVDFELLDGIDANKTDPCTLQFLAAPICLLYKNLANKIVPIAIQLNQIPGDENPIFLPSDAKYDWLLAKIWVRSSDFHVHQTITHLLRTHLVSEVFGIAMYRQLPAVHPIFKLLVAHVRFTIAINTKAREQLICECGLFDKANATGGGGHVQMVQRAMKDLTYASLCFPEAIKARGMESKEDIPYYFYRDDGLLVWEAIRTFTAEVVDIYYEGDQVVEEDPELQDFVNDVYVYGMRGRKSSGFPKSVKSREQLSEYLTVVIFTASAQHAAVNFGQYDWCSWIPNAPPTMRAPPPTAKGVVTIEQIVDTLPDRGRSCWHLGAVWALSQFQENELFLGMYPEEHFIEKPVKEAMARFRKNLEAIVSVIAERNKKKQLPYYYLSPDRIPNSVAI", "test": "Human 5-LOX assay", "assay_type": "biochemical", "details": "positive control 100 µM", "method": "as §1"}, "Human FAAH": {"target": "T3, Human FAAH (Homo sapiens, UniProt O00519)", "T3 construct": "purchased Cayman Chemical Company", "T3 sequence (O00519 whole entry)": "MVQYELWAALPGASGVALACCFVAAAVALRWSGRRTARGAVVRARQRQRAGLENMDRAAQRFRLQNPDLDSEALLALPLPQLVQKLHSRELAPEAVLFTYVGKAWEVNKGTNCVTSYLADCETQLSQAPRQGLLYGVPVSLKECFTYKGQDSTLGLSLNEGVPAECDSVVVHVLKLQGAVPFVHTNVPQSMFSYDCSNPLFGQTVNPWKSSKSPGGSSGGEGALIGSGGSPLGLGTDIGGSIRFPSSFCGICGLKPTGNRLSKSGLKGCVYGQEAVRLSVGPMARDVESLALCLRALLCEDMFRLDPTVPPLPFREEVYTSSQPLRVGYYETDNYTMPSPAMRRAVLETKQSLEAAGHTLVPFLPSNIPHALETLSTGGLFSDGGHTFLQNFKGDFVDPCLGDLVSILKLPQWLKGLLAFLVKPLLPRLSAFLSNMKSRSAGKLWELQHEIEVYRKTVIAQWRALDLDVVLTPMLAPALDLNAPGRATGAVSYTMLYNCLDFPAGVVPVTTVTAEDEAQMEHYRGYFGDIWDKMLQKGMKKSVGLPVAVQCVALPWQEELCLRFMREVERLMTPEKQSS", "test": "Human FAAH assay", "assay_type": "biochemical", "details": "positive control 100 nM; read-out: Mean ± SEM % inhibition of control, Human FAAH", "method": "(§2) Mouse brain was homogenized in 50 mM Tris-HCl (pH 7.4) using a glass potter, centrifuged at 1000 g for 10 min, and the pellet was discarded. The supernatant (50 µg) was incubated with [^14C]-AEA (10 µM) (ARC, MO, USA) at 37°C for 15 min (Tris-HCl, pH 9.0) and reactions were stopped with a 2:1 (v/v) mixture of chloroform/methanol. [^14C]-ethanolamine release in the aqueous phase was measured as previously reported. Mouse supernatants (50 µg) were preincubated with RG7774 (10 µM) for 15 min and added directly to the incubation medium. Purified human FAAH (1.7 µg; Cayman Chemical Company, MI, USA) was incubated with [^14C]-AEA (10 µM) (ARC, MO, USA) at 37°C for 15 min (pH 9.0), as previously described. […] for 15 min with 8 different concentrations of RG7774 (0.1-500 µM) and added directly to the incubation medium (250 µL). Control experiments was carried out in the presence of the FAAH inhibitor, URB-597 (100 nM)."}, "Mouse FAAH": {"target": "T4, Mouse FAAH (Mus musculus, UniProt O08914)", "T4 construct": "Mouse brain was homogenized in 50 mM Tris-HCl (pH 7.4); from tissue; host or cells: mouse brain, 1000 g supernatant", "T4 sequence (O08914 whole entry)": "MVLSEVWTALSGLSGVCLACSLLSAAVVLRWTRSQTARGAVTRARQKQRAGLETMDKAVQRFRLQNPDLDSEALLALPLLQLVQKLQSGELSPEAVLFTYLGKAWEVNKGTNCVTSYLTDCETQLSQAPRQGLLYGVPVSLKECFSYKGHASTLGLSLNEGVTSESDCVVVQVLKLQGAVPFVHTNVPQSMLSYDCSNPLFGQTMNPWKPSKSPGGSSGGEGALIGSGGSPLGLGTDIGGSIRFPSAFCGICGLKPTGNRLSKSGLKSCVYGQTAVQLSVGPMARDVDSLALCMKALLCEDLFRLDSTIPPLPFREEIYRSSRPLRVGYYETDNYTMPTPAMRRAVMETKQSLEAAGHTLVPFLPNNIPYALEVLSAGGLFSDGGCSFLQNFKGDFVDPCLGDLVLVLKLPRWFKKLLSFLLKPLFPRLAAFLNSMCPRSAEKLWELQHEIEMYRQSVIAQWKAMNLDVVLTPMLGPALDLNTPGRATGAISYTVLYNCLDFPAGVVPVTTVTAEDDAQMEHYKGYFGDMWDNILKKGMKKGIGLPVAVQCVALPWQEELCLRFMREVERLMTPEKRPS", "test": "Mouse FAAH assay (brain)", "assay_type": "biochemical", "details": "positive control 100 nM; read-out: Mean ± SEM % inhibition of control, Mouse FAAH", "method": "as §2"}, "Jurkat cells": {"tested_on": "Jurkat cells", "test": "xCELLigence impedance assay in Jurkat cells", "assay_type": "cell-based, human", "details": "co-treatment with RG7774", "method": "Background impedance was determined in 96-well RTCA E-plates (Agilent Technologies, Santa Clara, CA, United States) coated with 150 μg/mL fibronectin/H2O (Sigma-Aldrich, St. Louis, MO, United States) and containing 50 μL RPMI 1640 assay medium (Fisher Scientific, Schwerte, Germany) 31870) with 10% fetal calf serum (FCS). Jurkat cells (200,000 cells per well) were seeded in 100 μL of growth medium, allowed to settle for 30 min at RT, and cultured overnight at 37°C and 5% CO2. Dose-response curves were generated by adding increasing concentrations of RG7774 to seeded Jurkat cells and performing impedance measurements (xCelligence RTCA M, Agilent Technologies, Santa Clara, CA, United States) at baseline and 1 h after treatment. Displacement experiments were performed by incubating seeded Jurkat cells with 10 μM SR144528, a CB2R-selective antagonist (Tocris Bioscience, Bristol, United Kingdom) or 10 μM RO6851228 (a CB2R-selective inverse agonist; in-house synthesis) in assay medium overnight at 37°C and 5% CO2. Cells were re-treated with 10 μM SR144528 or […] for 1 h and stimulated with 233 nM RG7774 in assay medium. […] Displacement data are presented as the percentage of the maximal normalized cell index determined after antagonist/inverse agonist treatment relative to the percentage of the normalized cell index at 109 nM RG7774 treatment."}, "Human MAGL": {"target": "T5, Human MAGL (Homo sapiens, UniProt Q99685)", "T5 construct": "Mouse brain or human U937 cell extracts (ATCC, Manassas, VI, USA); host or cells: U937 cells, 100,000 g supernatant", "T5 sequence (Q99685 whole entry)": "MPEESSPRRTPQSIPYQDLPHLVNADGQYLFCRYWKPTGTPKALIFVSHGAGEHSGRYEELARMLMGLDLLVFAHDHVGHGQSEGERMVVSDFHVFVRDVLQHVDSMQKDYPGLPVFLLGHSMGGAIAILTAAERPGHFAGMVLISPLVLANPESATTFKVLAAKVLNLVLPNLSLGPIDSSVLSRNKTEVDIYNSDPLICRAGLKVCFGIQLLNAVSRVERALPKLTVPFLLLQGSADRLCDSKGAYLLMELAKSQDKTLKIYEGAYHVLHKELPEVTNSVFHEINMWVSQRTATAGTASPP", "test": "Human MAGL assay (U937 cell extracts)", "assay_type": "biochemical", "details": "positive control 100 nM", "method": "The final supernatant was incubated with [^3H]-2-OG (10 µM) (ARC, MO, USA) at 37°C for 30 min as previously described, and reactions were stopped with a 2:1 (v/v) mixture of chloroform/methanol. [^3H]-glycerol release in the aqueous phase was measured by scintillation counting. […] Human supernatant (100 µg) was preincubated for 15 min at RT with 8 different concentrations of RG7774 (0.1-500 µM) in the incubation medium."}, "Human EMT": {"tested_on": "Human EMT", "test": "Human EMT activity (HaCaT cells)", "assay_type": "cell-based", "details": "positive control 40 µM", "method": "HaCaT cells were seeded (350,000–400,000 cell/well) in triplicate in 12-well plates and incubated for 15 min in PBS at 37°C with [^3H]-N-arachidonoylethanolamine ([^3H]-AEA) (400 nM) (ARC, MO, USA), as previously reported. Experiments were repeated at 4°C in order to subtract passive diffusion from EMT-mediated uptake. RG7774 (10 µM) was preincubated with labeled HaCaT cells for 15 min before adding directly to the incubation medium (PBS). The selective EMT inhibitor, OMDM-1 (40 µM), was used as positive control."}, "Mouse CB1R": {"target": "Mouse CB1R (Mus musculus, UniProt P47746)", "sequence (P47746 whole entry)": "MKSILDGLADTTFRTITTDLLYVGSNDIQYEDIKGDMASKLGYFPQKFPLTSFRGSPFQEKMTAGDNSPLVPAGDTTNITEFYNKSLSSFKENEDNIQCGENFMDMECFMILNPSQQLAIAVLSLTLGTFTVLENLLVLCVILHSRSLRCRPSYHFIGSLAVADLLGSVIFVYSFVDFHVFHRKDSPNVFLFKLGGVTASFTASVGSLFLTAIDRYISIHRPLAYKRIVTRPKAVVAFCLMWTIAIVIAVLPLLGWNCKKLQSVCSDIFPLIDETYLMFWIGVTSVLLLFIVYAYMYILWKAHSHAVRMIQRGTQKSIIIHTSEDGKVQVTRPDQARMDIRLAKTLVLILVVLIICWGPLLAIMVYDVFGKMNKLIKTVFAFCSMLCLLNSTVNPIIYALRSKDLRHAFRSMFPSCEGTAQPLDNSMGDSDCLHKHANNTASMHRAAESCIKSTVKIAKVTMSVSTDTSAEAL", "test": "Mouse cAMP assay in N18TG2 cells", "assay_type": "cell-based", "set-up": "inhibition at 0.1 µM: reference not given here", "details": "N18TG2, read-out: Mean ± SEM % inhibition of control, Mouse CB1R (cAMP assay)", "method": "The effect of RG7774 on the forskolin-stimulated accumulation of cAMP was determined using the LANCE ULTRAcAMP kit (PerkinElmer Life Sciences, MA, USA), according to the manufacturer’s instructions. Briefly, N18TG2 cells preincubated for 30 min with 1-methyl-3-isobutylxanthine (1 mM) were added to 0.5 µM forskolin preincubated with or without RG7774 for 15 min. Reactions were incubated for 30 min at 37°C and Time-resolved fluorescence was measured using a Victor V Multilabel counter (PerkinElmer Life Sciences). Data were transformed into cAMP concentrations using a standard curve."}, "Human DAGL": {"tested_on": "Human DAGL", "test": "Human DAGL assay (HaCaT cells)", "assay_type": "biochemical", "details": "positive control 10 µM", "method": "(§3) Mouse brain or human HaCaT cells (CLS Cell Lines Service, GmbH, Eppelheim, Germany) were homogenized in 50 mM Tris-HCl (pH 7.4) using a glass potter, and homogenates were centrifuged at 4°C sequentially at 800 g (10 min) and 10,000 g (30 min). The final pellet (80–200 µg) was resuspended in 50 mM Tris-HCl (pH 7.4) containing 10 mM CaCl2 and incubated at 37°C for 30 min with sn-1[^14C]-stearoyl-2-arachidonoyl-glycerol (100 µM) (ARC, MO, USA). Reactions were stopped by adding chloroform/methanol (2:1, v/v), and the organic phase was dried and fractionated by thin-layer chromatography on silica gel, as previously reported. Levels of 1[^14C]-stearoyl acid radioactivity were determined by cutting the appropriate band from the gel and analyzing using a β-scintillation counter. Mouse cells were preincubated for 15 min with RG7774 (10 µM) and added to the incubation medium. Human cells were preincubated for 15 min with 8 different concentrations of RG7774 (0.1-500 µM) and added to the incubation medium. Control experiments were carried out in the presence of the selective DAGL inhibitor, D053 (10 µM)."}, "Mouse DAGL": {"tested_on": "Mouse DAGL", "test": "Mouse DAGL assay (brain)", "assay_type": "biochemical", "details": "positive control 10 µM", "method": "as §3"}}}
{"compound": "CC(Cc1ccc(O)c(O)c1)C(C)Cc1ccc(O)c(O)c1", "note": "(stereo not shown) [NDGA, reference compound]", "values": [{"measurement": "Mean ± SEM % inhibition of control, Human 12-LOX", "setting": "Human 12-LOX", "result": "84.6 ± 0.7", "unit": "%"}, {"measurement": "Mean ± SEM % inhibition of control, Human 5-LOX", "setting": "Human 5-LOX", "result": "126.6 ± 2.4", "unit": "%"}]}
{"compound": "NC(=O)c1cccc(-c2cccc(OC(=O)NC3CCCCC3)c2)c1", "note": "[URB-597, reference compound]", "values": [{"measurement": "inhibition at 0.1 µM", "setting": "Human FAAH", "result": "92.8 ± 6.1", "unit": "%"}, {"measurement": "inhibition at 0.1 µM", "setting": "Mouse FAAH", "result": "83.2 ± 4.6", "unit": "%"}]}
{"compound": "SR144528 [reference compound]", "values": [{"measurement": "inhibition of RG7774-induced increase in maximal normalized cell index", "setting": "Jurkat cells", "result": "fully inhibited"}]}
{"compound": "O=C(Oc1ccc([N+](=O)[O-])cc1)N1CCC(C(O)(c2ccc3c(c2)OCO3)c2ccc3c(c2)OCO3)CC1", "note": "[JZL-184, reference compound]", "values": [{"measurement": "Mean ± SEM % inhibition of control, Human MAGL", "setting": "Human MAGL", "result": "84.3 ± 3.4", "unit": "%"}]}
{"compound": "CCCCCCCC/C=C\\CCCCCCCC(=O)N[C@H](CO)Cc1ccc(O)cc1", "note": "[OMDM-1, reference compound]", "values": [{"measurement": "Mean ± SEM % inhibition of control, Human EMT", "setting": "Human EMT", "result": "95.5 ± 0.4", "unit": "%"}]}
{"compound": "CCCCCCC(C)(C)c1ccc([C@@H]2C[C@H](O)CC[C@H]2CCCO)c(O)c1", "note": "[CP-55940, reference compound]", "values": [{"measurement": "inhibition at 0.1 µM", "setting": "Mouse CB1R", "result": "91.5 ± 2.6", "unit": "%"}]}
{"compound": "CC(C)(C)OC(=O)N1CCN(C(=O)n2cc(-c3ccc(OC(F)(F)F)cc3)nn2)C(c2ccccc2)C1", "note": "(stereo not shown) [DO53, reference compound]", "values": [{"measurement": "Mean ± SEM % inhibition of control, Human DAGL", "setting": "Human DAGL", "result": "103.1 ± 13.2", "unit": "%"}, {"measurement": "Mean ± SEM % inhibition of control, Mouse DAGL", "setting": "Mouse DAGL", "result": "60.4 ± 4.3", "unit": "%"}]}
